The values that follow come from patent US11976076B1 (priority 2023, dated 2024).

In brackets after ≈: the same amount, converted by molar mass.

In this assay the test system is multidrug-resistant (MDR) strains of Mycobacterium tuberculosis. Description: microbe, parasite or virus in culture. The settings on record: 192 h, read-out: Anti-tubercular activity (MIC) MDR-TB. Type of assay: cell-based.
For `O=c1[nH]c(=O)c2c(-c3c[nH]c4ccccc34)nc(=S)[nH]c2[nH]1` [Compound 4a, 5-(1H-Indol-3-yl)-7-thioxo-7,8-dihydropyrimido[4,5-d]pyrimidine-2,4(1H,3H)-dione], the MIC amounted to 16 µg/mL (≈ 51.4 µM). Then `Cn1c(=O)c2c(-c3c[nH]c4ccccc34)nc(=S)[nH]c2n(C)c1=O` [Compound 4c, 5-(1H-Indol-3-yl)-1,3-dimethyl-7-thioxo-7,8-dihydropyrimido[4,5-d]pyrimidine-2,4(1H,3H)-dione], with 4 µg/mL (≈ 11.8 µM); and `O=c1[nH]c(=S)[nH]c2[nH]c(=S)nc(-c3c[nH]c4ccccc34)c12` [Compound 4b, 5-(1H-Indol-3-yl)-2,7-dithioxo-2,3,7,8-tetrahydropyrimido[4,5-d]pyrimidin-4(1H)-one], with 8 µg/mL (≈ 24.4 µM).
